Laboratory results reported in US20050112573A1, “Method of detecting toxic substance” (priority 2001, published 2005).

Tested on: yeast genes (level of expressed mRNA)
Test: DNA chip analysis of expressed mRNA of yeast genes after 2 h culture with a toxic chemical substance
Type: cell-based, Saccharomyces cerevisiae S288C
Settings: for The level of expressed mRNA in the presence of chemical substance/ (ratio to absence): transport facilitation protein gene; for The level of expressed mRNA in the presence of chemical substance/: ratio to no chemical; for The level of expressed mRNA in the presence of chemical substance/ (ratio to absence of chemical substance): stress protein genes, DNA chip
Protocol: Yeast (Saccharomyces cerevtisiae S288C (α SUC2mal mel gap2 CUP1)) were cultured at 25° C. on YPD medium (yeast extract 1%, polypepton 2%, glucose 2%). One of toxic chemical substances was added to the cell at logarithmic growth phase, and the cell was further cultured for two hours. Cell was cultured without any chemical substance in the same condition, and was used as control. Concentrations of the chemical substances were defined to inhibit the growth of the yeast but not lead to death.
After the completion of cultivation, the culture was centrifuged to collect the cells. To the cells, sodium acetate buffer (50 mM sodium acetate, 10 mM EDTA, 1% SDS) was added, and the mixture was shaken at 65° C. for five minutes, followed by returning to room temperature, and obtaining the supernatant, which procedure was repeated two times. To the supernatant, ½ amount of a solution of phenol/chloroform was added, and the mixture was centrifuged to give a supernatant, which was added with an equal amount of chloroform, and the mixture was centrifuged to give a supernatant. To the supernatant, an equal amount of isopropanol containing 0.3 M sodium acetate was added, and the mixture was allowed to stand at room temperature for 30 minutes, after which the mixture was centrifuged to give a sediment of the whole RNAs. Seventy % ethanol was added to the sediment, and the mixture was again centrifuged to give a sediment, which was then dried and dissolved in water. mRNA was isolated from the whole RNAs as followings. In view of the fact that a poly A chain is attached to the 3′ terminus of mRNA, a polynucleotide having a poly T structure which was immobilized on the surface of latex beads was used to trap the mRNA, and then the mRNA was washed and eluted with spine column (Oligotex-dT30<Super>mRNA Purification Kit, Takara). Reverse transcription of the mRNA was conducted with a reverse transcriptase (Super Script II Reverse Transcriptase; catalogue No. 18064-014, GibcoBRL) using fluorescence-labeled nucleotides to give cDNAs that were introduced with Cy3-dUTP or Cy5-dUTP during the reverse transcription.
The labeled cDNAs were dissolved in TE buffer (10 mM Tris-HCl/1 mM EDTA, pH8.0), and the solution was dropped on the DNA chip containing the whole genes of yeast (DNA Chip Research Inc. Japan) so that the cDNAs were hybridized on the DNA chip at 65° C. for over 12 hours. The fluoresces intensity of the DNA chip was read with a scanner, and the ratio relative to the fluorescence intensity resulting from the absence of chemical substance was estimated as the following, which is shown in Tables 1 to 9: [formula]
In the Tables, “Intensity” indicated in the rightmost column is a value of the level of expressed mRNA of each gene in control cells as divided by the average level of the expressions of the whole genes.

Substance: sodium dodecylbenzosulfonate [(17)]
- level of expressed mRNA in the presence of chemical substance/in its absence (gene YNL037C): 0.9
- level of expressed mRNA in the presence of chemical substance/in its absence (gene YNL045W): 1.1
- The level of expressed mRNA in the presence of chemical substance/absence: YNL058C (gene YNL058C): 0.8
- The level of expressed mRNA in the presence of chemical substance/absence: YNL063W (gene YNL063W): 0.9
- level of expressed mRNA in the presence of chemical substance/in its absence (gene YNL104C): 0.9
- level of expressed mRNA in the presence of chemical substance/in its absence (gene YNL106C): 1.1
- level of expressed mRNA in the presence of chemical substance/in its absence (gene YNL130C): 0.7
- level of expressed mRNA in the presence of chemical substance/in its absence (gene YNL169C): 1.1
- The level of expressed mRNA in the presence of chemical substance/absence: YNL176C (gene YNL176C): 0.6
- The level of expressed mRNA in the presence of chemical substance/absence: YNL181W (gene YNL181W): 0.8
- The level of expressed mRNA in the presence of chemical substance/absence: YNL191W (gene YNL191W): 0.5
- The level of expressed mRNA in the presence of chemical substance/absence: YNL194C (gene YNL194C): 0.8
- The level of expressed mRNA in the presence of chemical substance/absence: YNL200C (gene YNL200C): 1.2
- The level of expressed mRNA in the presence of chemical substance/absence: YNL212W (gene YNL212W): 0.9
- level of expressed mRNA in the presence of chemical substance/in its absence (gene YNL231C): 3.1
- The level of expressed mRNA in the presence of chemical substance/absence: YNL253W (gene YNL253W): 1.1
- The level of expressed mRNA in the presence of chemical substance/absence: YNL265C (gene YNL265C): 0.9
- The level of expressed mRNA in the presence of chemical substance/absence: YNL276C (gene YNL276C): 1.1
- level of expressed mRNA in the presence of chemical substance/in its absence (gene YNL322C): 0.9
- level of expressed mRNA in the presence of chemical substance/in its absence (gene YNR002C): 1.5
- level of expressed mRNA in the presence of chemical substance/in its absence (gene YNR019W): 2.4
- level of expressed mRNA in the presence of chemical substance/in its absence (gene YNR033W): 0.9
- The level of expressed mRNA in the presence of chemical substance/absence: YNR051C (gene YNR051C): 0.7
- level of expressed mRNA in the presence of chemical substance/in its absence (gene YNR059W): 2.6
- The level of expressed mRNA in the presence of chemical substance/absence: YOL026C (gene YOL026C): 2.1
- The level of expressed mRNA in the presence of chemical substance/absence: YOL030W (gene YOL030W): 0.9
- level of expressed mRNA in the presence of chemical substance/in its absence (gene YOL058W): 1.2
- level of expressed mRNA in the presence of chemical substance/in its absence (gene YOL126C): 1.6
- level of expressed mRNA in the presence of chemical substance/in its absence (gene YOL143C): 1.8
- level of expressed mRNA in the presence of chemical substance/in its absence (gene YOL153C): 1.1
- level of expressed mRNA in the presence of chemical substance/in its absence (gene YOL157C): 1.4
- The level of expressed mRNA in the presence of chemical substance/absence: YOR022C (gene YOR022C): 1.1
- The level of expressed mRNA in the presence of chemical substance/absence: YOR087W (gene YOR087W): 0.8
- The level of expressed mRNA in the presence of chemical substance/absence: YOR088W (gene YOR088W): 0.7
- level of expressed mRNA in the presence of chemical substance/in its absence (gene YOR099W): 1.2
- level of expressed mRNA in the presence of chemical substance/in its absence (gene YOR130C): 1.5
- level of expressed mRNA in the presence of chemical substance/in its absence (gene YOR136W): 0.8
- The level of expressed mRNA in the presence of chemical substance/absence: YOR138C (gene YOR138C): 1.1
- The level of expressed mRNA in the presence of chemical substance/absence: YOR155C (gene YOR155C): 0.8
- The level of expressed mRNA in the presence of chemical substance/absence: YOR253W (gene YOR253W): 0.9
- The level of expressed mRNA in the presence of chemical substance/absence: YOR267C (gene YOR267C): 1.3
- The level of expressed mRNA in the presence of chemical substance/absence: YOR325W (gene YOR325W): 0.8
- level of expressed mRNA in the presence of chemical substance/in its absence (gene YOR336W): 1.0
- level of expressed mRNA in the presence of chemical substance/in its absence (gene YOR344C): 1.3
- level of expressed mRNA in the presence of chemical substance/in its absence (gene YOR347C): 1.7
- The level of expressed mRNA in the presence of chemical substance/absence: YPL005W (gene YPL005W): 1.2
- level of expressed mRNA in the presence of chemical substance/in its absence (gene YPL017C): 1.3
- The level of expressed mRNA in the presence of chemical substance / the level in the absence of chemical substance, yeast gene YPL107W (gene YPL107W, DNA chip fluorescence ratio to control without chemical, 2 hours culture with chemical, growth-inhibiting non-lethal concentration): 1.0
- The level of expressed mRNA in the presence of chemical substance / the level in the absence of chemical substance, yeast gene YPL138C (gene YPL138C, DNA chip fluorescence ratio to control without chemical, 2 hours culture with chemical, growth-inhibiting non-lethal concentration): 0.8
- The level of expressed mRNA in the presence of chemical substance/absence: YPL150W (gene YPL150W): 1.4
- The level of expressed mRNA in the presence of chemical substance/absence: YPL151C (gene YPL151C): 0.8
- The level of expressed mRNA in the presence of chemical substance/absence: YPL152W (gene YPL152W): 1.2
- The level of expressed mRNA in the presence of chemical substance/absence: YPL168W (gene YPL168W): 1.1
- The level of expressed mRNA in the presence of chemical substance/absence: YPL180W (gene YPL180W): 1.0
- The level of expressed mRNA in the presence of chemical substance/absence: YPL188W (gene YPL188W): 0.7
- The level of expressed mRNA in the presence of chemical substance/absence: YPL221W (gene YPL221W): 1.5
- The level of expressed mRNA in the presence of chemical substance/absence: YPL225W (gene YPL225W): 1.0
- The level of expressed mRNA in the presence of chemical substance/absence: YPL249C (gene YPL249C): 0.8
- The level of expressed mRNA in the presence of chemical substance/absence: YPL260W (gene YPL260W): 0.8
- level of expressed mRNA in the presence of chemical substance/in its absence (gene YPL265W): 0.5
- level of expressed mRNA in the presence of chemical substance/in its absence (gene YPR006C): 1.8
- level of expressed mRNA in the presence of chemical substance/in its absence (gene YPR026W): 0.9
- The level of expressed mRNA in the presence of chemical substance/absence: YPR049C (gene YPR049C): 1.0
- The level of expressed mRNA in the presence of chemical substance/absence: YPR061C (gene YPR061C): 1.1
- The level of expressed mRNA in the presence of chemical substance/absence: YPR093C (gene YPR093C): 1.4
- The level of expressed mRNA in the presence of chemical substance/absence: YPR146C (gene YPR146C): 1.0
- The level of expressed mRNA in the presence of chemical substance/absence: YPR148C (gene YPR148C): 0.9
- The level of expressed mRNA in the presence of chemical substance/absence: YPR150W (gene YPR150W): 0.9
- The level of expressed mRNA in the presence of chemical substance/absence: YPR158W (gene YPR158W): 0.9
- The level of expressed mRNA in the presence of chemical substance/absence: YPR169W (gene YPR169W): 1.1
- The level of expressed mRNA in the presence of chemical substance/absence: YPR172W (gene YPR172W): 1.1
- The level of expressed mRNA in the presence of chemical substance/absence: YPR174C (gene YPR174C): 1.4
- The level of expressed mRNA in the presence of chemical substance/in the absence of chemical substance (yeast gene YAL023C): 1.0
- The level of expressed mRNA in the presence of chemical substance/in the absence of chemical substance (yeast gene YAL060W): 1.1
- The level of expressed mRNA in the presence of chemical substance/in the absence of chemical substance (yeast gene YAL062W): 1.0
- The level of expressed mRNA in the presence of chemical substance/ (ratio to absence) (yeast gene YAL067C): 1.0
- The level of expressed mRNA in the presence of chemical substance/The level of expressed mRNA in the absence of chemical substance (yeast gene YAR010C): 1.5
- The level of expressed mRNA in the presence of chemical substance/The level of expressed mRNA in the absence of chemical substance (yeast gene YBL005W-A): 1.3
- The level of expressed mRNA in the presence of chemical substance/ (ratio to absence) (yeast gene YBL030C): 1.0
- The level of expressed mRNA in the presence of chemical substance/ (ratio to absence), gene YBL038W (yeast gene YBL038W, mitochondria-located protein genes, 2 h culture with chemical): 1.2
- The level of expressed mRNA in the presence of chemical substance/The level of expressed mRNA in the absence of chemical substance (yeast gene YBL041W): 1.3
- The level of expressed mRNA in the presence of chemical substance/The level of expressed mRNA in the absence of chemical substance (yeast gene YBL043W): 2.3
- The level of expressed mRNA in the presence of chemical substance/ (yeast gene YBL065W): 1.1
- The level of expressed mRNA in the presence of chemical substance/The level of expressed mRNA in the absence of chemical substance (yeast gene YBL078C): 1.8
- The level of expressed mRNA in the presence of chemical substance/ (ratio to absence of chemical substance) (yeast gene YBL093C): 1.4
- The level of expressed mRNA in the presence of chemical substance/ (ratio to absence) (yeast gene YBL099W): 0.7
- The level of expressed mRNA in the presence of chemical substance/in the absence of chemical substance (yeast gene YBR006W): 1.2
- The level of expressed mRNA in the presence of chemical substance/ (in its absence), gene YBR036C (yeast gene YBR036C, ratio of DNA chip fluorescence intensity to that without chemical substance): 2.1
- The level of expressed mRNA in the presence of chemical substance/ (ratio to absence of chemical substance) (yeast gene YBR044C): 0.9
- The level of expressed mRNA in the presence of chemical substance/ (yeast gene YBR047W): 1.3
- The level of expressed mRNA in the presence of chemical substance/ (ratio to absence) (yeast gene YBR052C): 1.8
- The level of expressed mRNA in the presence of chemical substance/in the absence of chemical substance (yeast gene YBR056W): 2.4
- The level of expressed mRNA in the presence of chemical substance/ (ratio to absence) (yeast gene YBR068C): 1.1
- The level of expressed mRNA in the presence of chemical substance/ (yeast gene YBR101C): 0.9
